Key:
[1] = molecular target: T1, 17β-hydroxysteroid dehydrogenase type 10 (HSD10) (Homo sapiens, UniProt Q99714); assay: (-)-CHANA fluorogenic probe turnover in HSD10-overexpressing HEK293 cells; format: cell-based
T1 construct: gene HSD17B10; HSD10 overexpressed in HEK293 cells
T1 sequence (Q99714 2-261): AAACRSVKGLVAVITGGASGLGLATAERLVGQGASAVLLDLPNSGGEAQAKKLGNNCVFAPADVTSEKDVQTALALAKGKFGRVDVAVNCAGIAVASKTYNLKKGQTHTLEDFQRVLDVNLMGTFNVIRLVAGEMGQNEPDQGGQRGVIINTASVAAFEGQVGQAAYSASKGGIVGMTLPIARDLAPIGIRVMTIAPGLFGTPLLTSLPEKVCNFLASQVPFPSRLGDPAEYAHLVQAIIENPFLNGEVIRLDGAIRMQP

[2] = molecular target: amyloid-β 42 Aβ1-42 (Homo sapiens) (UniProt P05067); details: cited from earlier work
amyloid-β 42 Aβ1-42 (Homo sapiens), sequence (P05067 1-42): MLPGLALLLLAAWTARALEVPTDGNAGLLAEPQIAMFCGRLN

Molecule | IC50 [1] | Kd [2]
O=C(C(c1ccccc1)n1cnc2[nH]ncc2c1=S)N1CCCCCC1 (stereo not drawn) [AG18051] | 0.19 µM | 
COc1ccc2nc(NC(=O)c3ccc(O)c(Cl)c3)sc2c1 [compound 34, inhibitor 34] | 4.26 µM | 
HSD10 (from UniProt Q99714) |  | 0.0558 µM
